Assay results taken from the supplement of paper PMC6045584.
± gives the standard deviation of the averaged measurements.

Experiments:
FLUOROURACIL = compound: O=c1[nH]cc(F)c(=O)[nH]1 [FLUOROURACIL]; assay: surviving fraction relative to DMSO-only wells; higher = less growth inhibition; settings: exposure time: 5 days
Summary of the method: (§1)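 Log-phase tumour cell lines were seeded at 250–500 cells per well in 384-well plates. After 24 hours they were exposed continuously for five days to inhibitors at 0.5, 1, 5, 10, 50, 100, 500 and 1000 nM. Viability was read by CellTiter-Glo luminescence after 10 minutes at room temperature, and surviving fraction is luminescence normalised to the median of DMSO-only wells. Each line was screened three times and kept only if replicate Pearson r >0.7 and median Z' >0.3.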

SALINOMYCIN = compound: CC[C@@H](C(=O)[C@@H](C)[C@@H](O)[C@H](C)[C@@H]1O[C@@H]([C@@H](CC)C(=O)O)CC[C@@H]1C)[C@H]1O[C@]2(C=C[C@@H](O)[C@]3(CC[C@@](C)([C@H]4CC[C@](O)(CC)[C@H](C)O4)O3)O2)[C@H](C)C[C@@H]1C [SALINOMYCIN]; assay: as above; settings: exposure time: 5 days
Summary of the method: as §1

Row | Test System | surviving fraction (FLUOROURACIL; 0.5 nM) | surviving fraction (FLUOROURACIL; 1 nM) | surviving fraction (FLUOROURACIL; 5 nM) | surviving fraction (FLUOROURACIL; 10 nM) | surviving fraction (FLUOROURACIL; 50 nM) | surviving fraction (FLUOROURACIL; 100 nM) | surviving fraction (FLUOROURACIL; 500 nM) | surviving fraction (FLUOROURACIL; 1000 nM) | surviving fraction (SALINOMYCIN; 0.5 nM) | surviving fraction (SALINOMYCIN; 1 nM) | surviving fraction (SALINOMYCIN; 5 nM) | surviving fraction (SALINOMYCIN; 10 nM) | surviving fraction (SALINOMYCIN; 50 nM) | surviving fraction (SALINOMYCIN; 100 nM) | surviving fraction (SALINOMYCIN; 500 nM) | surviving fraction (SALINOMYCIN; 1000 nM)
1 | JURKAT HAEMATOPOIETIC AND LYMPHOID TISSUE | 1.14 ± 0.028 | 1.09 ± 0.0023 | 1.09 ± 0.049 | 1.09 ± 0.016 | 1.04 ± 0.069 | 1.03 ± 0.061 | 1.07 ± 0.022 | 0.842 ± 0.057 | 1.08 ± 0.011 | 1.09 ± 0.028 | 1.03 ± 0.02 | 1.04 ± 0.042 | 0.815 ± 0.024 | 0.673 ± 0.018 | 0.23 ± 0.005 | 0.101 ± 0.0053
2 | KPD BONE | 0.982 ± 0.018 | 0.922 ± 0.052 | 1.02 ± 0.07 | 1.03 ± 0.044 | 1.05 ± 0.048 | 1.02 ± 0.051 | 0.9797 ± 0.0032 | 0.926 ± 0.022 | 0.931 ± 0.046 | 0.942 ± 0.013 | 1 ± 0.064 | 0.979 ± 0.018 | 0.93 ± 0.032 | 0.7467 ± 0.005 | 0.235 ± 0.015 | 0.128 ± 0.016
3 | LM7 BONE | 0.976 ± 0.039 | 0.992 ± 0.027 | 1.05 ± 0.043 | 1.01 ± 0.047 | 0.851 ± 0.057 | 0.856 ± 0.077 | 0.73 ± 0.079 | 0.628 ± 0.083 | 1.01 ± 0.021 | 1.01 ± 0.068 | 1.06 ± 0.041 | 1.11 ± 0.065 | 1.05 ± 0.053 | 1.09 ± 0.051 | 0.588 ± 0.04 | 0.397 ± 0.02
4 | LNCAP PROSTATE | 1.07 ± 0.039 | 1.17 ± 0.076 | 1.07 ± 0.11 | 1.05 ± 0.043 | 1.17 ± 0.022 | 1.12 ± 0.021 | 0.964 ± 0.18 | 0.73 ± 0.11 | 0.833 ± 0.096 | 0.884 ± 0.07 | 0.818 ± 0.18 | 0.815 ± 0.11 | 0.643 ± 0.01 | 0.215 ± 0.013 | 0.0563 ± 0.005 | 0.0493 ± 0.0031
5 | MCF7 BREAST | 0.929 ± 0.055 | 0.907 ± 0.043 | 0.93 ± 0.035 | 0.893 ± 0.027 | 0.973 ± 0.11 | 0.986 ± 0.032 | 0.837 ± 0.054 | 0.707 ± 0.033 | 0.853 ± 0.048 | 0.8602 ± 0.005 | 0.821 ± 0.025 | 0.815 ± 0.034 | 0.941 ± 0.02 | 0.908 ± 0.055 | 0.677 ± 0.014 | 0.348 ± 0.028
6 | MDAMB134 BREAST | 0.823 ± 0.042 | 0.964 ± 0.16 | 0.832 ± 0.082 | 0.877 ± 0.18 | 0.745 ± 0.094 | 0.744 ± 0.12 | 0.748 ± 0.0042 | 0.714 ± 0.016 | 1.05 ± 0.26 | 1.01 ± 0.22 | 0.995 ± 0.0042 | 1.08 ± 0.015 | 1.02 ± 0.069 | 1.05 ± 0.021 | 1.32 ± 0.041 | 1.04 ± 0.037
7 | MDAMB157 BREAST | 0.981 ± 0.019 | 0.969 ± 0.12 | 1.05 ± 0.055 | 1.05 ± 0.1 | 1.02 ± 0.03 | 0.978 ± 0.017 | 0.943 ± 0.044 | 0.836 ± 0.059 | 0.881 ± 0.017 | 0.904 ± 0.042 | 0.985 ± 0.073 | 0.99 ± 0.044 | 0.982 ± 0.078 | 0.819 ± 0.054 | 0.217 ± 0.043 | 0.139 ± 0.011
8 | MDAMB231 BREAST | 0.978 ± 0.019 | 0.947 ± 0.014 | 0.975 ± 0.039 | 0.972 ± 0.022 | 0.961 ± 0.035 | 0.914 ± 0.041 | 0.986 ± 0.021 | 0.865 ± 0.022 | 0.9877 ± 0.006 | 0.9962 ± 0.0061 | 0.993 ± 0.011 | 0.983 ± 0.018 | 1 ± 0.057 | 0.953 ± 0.016 | 0.559 ± 0.011 | 0.425 ± 0.0083
9 | MDAMB361 BREAST | 0.725 ± 0.094 | 0.747 ± 0.067 | 0.8 ± 0.092 | 0.758 ± 0.12 | 0.537 ± 0.042 | 0.618 ± 0.027 | 0.704 ± 0.08 | 0.65 ± 0.061 | 0.826 ± 0.086 | 0.866 ± 0.041 | 0.877 ± 0.0093 | 0.845 ± 0.058 | 0.909 ± 0.047 | 0.845 ± 0.035 | 0.753 ± 0.014 | 0.638 ± 0.0085
10 | MDAMB436 BREAST | 0.937 ± 0.046 | 0.921 ± 0.063 | 0.964 ± 0.12 | 0.846 ± 0.11 | 0.84 ± 0.12 | 0.815 ± 0.029 | 0.722 ± 0.031 | 0.625 ± 0.013 | 0.858 ± 0.039 | 0.902 ± 0.047 | 0.668 ± 0.033 | 0.567 ± 0.042 | 0.464 ± 0.059 | 0.375 ± 0.049 | 0.105 ± 0.0028 | 0.0963 ± 0.0055
11 | MDAMB453 BREAST | 1.01 ± 0.092 | 1.01 ± 0.13 | 1.06 ± 0.11 | 0.987 ± 0.079 | 0.979 ± 0.035 | 0.968 ± 0.016 | 0.795 ± 0.026 | 0.706 ± 0.009 | 0.969 ± 0.025 | 0.9587 ± 0.0015 | 0.978 ± 0.027 | 0.9897 ± 0.009 | 1.02 ± 0.058 | 0.993 ± 0.045 | 0.56 ± 0.032 | 0.426 ± 0.06
12 | MDAMB468 BREAST | 0.887 ± 0.039 | 0.885 ± 0.095 | 0.919 ± 0.064 | 0.89 ± 0.058 | 0.881 ± 0.12 | 0.816 ± 0.06 | 0.859 ± 0.076 | 0.706 ± 0.097 | 1 ± 0.02 | 1 ± 0.087 | 1.04 ± 0.026 | 1.01 ± 0.052 | 1.12 ± 0.022 | 1.09 ± 0.04 | 0.648 ± 0.054 | 0.329 ± 0.018
13 | MFM223 BREAST | 1.14 ± 0.21 | 1.12 ± 0.17 | 1.18 ± 0.22 | 1.096 ± 0.0076 | 0.719 ± 0.014 | 0.772 ± 0.062 | 0.738 ± 0.036 | 0.667 ± 0.032 | 1.08 ± 0.091 | 1.05 ± 0.024 | 1.03 ± 0.03 | 1.01 ± 0.036 | 0.979 ± 0.051 | 0.461 ± 0.03 | 0.0642 ± 0.0082 | 0.0428 ± 0.0051
14 | MG63 BONE | 1.02 ± 0.041 | 1 ± 0.028 | 1.05 ± 0.021 | 1.03 ± 0.019 | 1.06 ± 0.024 | 0.99 ± 0.023 | 0.947 ± 0.024 | 0.805 ± 0.013 | 0.963 ± 0.02 | 0.941 ± 0.032 | 0.98 ± 0.021 | 0.946 ± 0.045 | 1.006 ± 0.003 | 0.871 ± 0.0095 | 0.167 ± 0.0053 | 0.081 ± 0.0044
15 | MHM BONE | 1.04 ± 0.07 | 1.02 ± 0.028 | 1.06 ± 0.047 | 1.04 ± 0.039 | 1.084 ± 0.0067 |  | 1.063 ± 0.0092 | 0.974 ± 0.034 | 0.988 ± 0.042 | 0.981 ± 0.046 | 1.01 ± 0.019 | 0.9657 ± 0.0042 | 1.037 ± 0.009 | 1.081 ± 0.0025 | 0.921 ± 0.044 | 0.694 ± 0.054
16 | NCIH441 LUNG | 1.08 ± 0.054 | 1.05 ± 0.076 | 1.06 ± 0.11 | 1.1 ± 0.021 | 0.996 ± 0.16 | 0.95 ± 0.18 | 0.998 ± 0.1 | 0.798 ± 0.11 | 1.01 ± 0.034 | 1.01 ± 0.038 | 1.06 ± 0.054 | 0.904 ± 0.06 | 1.12 ± 0.023 | 1.05 ± 0.049 | 0.715 ± 0.049 | 0.504 ± 0.061
